From patent US20230406883A1, “COMPOUNDS AND THEIR USE IN TREATMENT OF TACHYKININ RECEPTOR MEDIATED DISORDERS” (Embark Biotech ApS, priority 2020, published 2023)
Numbered stars: 1 amine (or outer) side, 2 acyl side, 3 side chain; on linkers, the order of the positions; unused ones are H or OH. Square brackets hold non-standard residues; d marks the D form. Peptide text beside a SMILES is read from it. * marks the point of attachment. C18 diacid = O=C(O)CCCCCCCCCCCCCCCCC(=O)*; γGlu = O=C(O)[C@H](CCC(=O)[*:2])N[*:1]; NMeL = CN[C@@H](CC(C)C)C(=O)O; hSer = N[C@@H](CCO)C(=O)O; Nle = CCCC[C@H](N)C(=O)O; AEEA = NCCOCCOCC(=O)O

Experiments:
[1] = Energy expenditure screening by indirect calorimetry in diet-induced obese mice; assay type: in vivo; details: DIO mice, 0.5 mg/kg s.c., increase over vehicle
Method: Indirect calorimetry was used to evaluate the ability of individual peptide analogues to dose-dependently increase energy expenditure (EE) we used metabolic cages and indirect calorimetry measured by the Promethion system. To this end, oxygen consumption was used as a surrogate measure for EE. Substrate preference (fat or carbohydrate) was evaluated using the respiratory exchange ratio (RER). In parallel, behavioral information such as walking distance and water and food intake were recorded.
Prior to experimentation, DIO mice were transferred to habituation cages for at least 10 days (5 days outside and at least 5 days in the Sable Systems gas analyzer module) to acclimatize. For all in vivo compound tests for EE evaluation, mice received subcutaneous injections between 2 and 4 pm.
Energy expenditure screening: After habituation, mice were subcutaneously injected with 0.5 mg/kg peptide analogue in a volume of 2 ml/kg. Mice were injected q.a.d. (quaque altera die) and received a total of two injections. EE was evaluated and increase over vehicle was calculated as percent of mean oxygen consumption over a 30-hour period after injection. Prior to injection peptide analogues were dissolved to 0.25 mg/ml in in vivo buffer.

hNK2R = biological target: T1, hNK2R (Homo sapiens, UniProt P21452); test: Indirect human serum albumin binding by IP3 assay, 0.2% ovalbumin vs 1% HSA; assay type: cell-based; details: for hNK2R, Albumin binding Efficacy (%)-ovalbumin: 0.2% ovalbumin; for hNK2R, Albumin binding Efficacy (%)-1% human serum albumin / EC50: 1% HSA; for EC50: read-out: hNK2R, Albumin binding EC50 (nM)-1% human serum albumin
T1 construct: host or cells: COS-7
T1 sequence (P21452 1-398): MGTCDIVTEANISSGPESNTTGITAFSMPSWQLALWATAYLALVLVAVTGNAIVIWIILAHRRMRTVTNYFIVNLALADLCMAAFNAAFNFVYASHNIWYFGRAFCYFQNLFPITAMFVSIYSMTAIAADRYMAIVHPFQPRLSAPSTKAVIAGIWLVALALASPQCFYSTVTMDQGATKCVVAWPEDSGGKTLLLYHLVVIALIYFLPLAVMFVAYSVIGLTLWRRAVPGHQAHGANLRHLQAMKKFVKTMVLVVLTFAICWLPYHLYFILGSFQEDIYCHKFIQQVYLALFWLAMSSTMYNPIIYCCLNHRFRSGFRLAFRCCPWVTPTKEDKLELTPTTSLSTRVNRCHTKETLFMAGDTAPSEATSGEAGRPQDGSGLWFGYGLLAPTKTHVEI
Method: Agonist-induced G-protein coupled receptor (GPCR) activation was measured by an Inositol-1,4,5-Trisphosphate [^3H] Radioreceptor Assay (IPs Assay). Assays were carried out using COS-7 cells transiently transfected by calcium phosphate transfection with a vector pcDNA3.1(+) encoding one of the indicated receptors (Genscript). Briefly, DNA mixed with CaCl2 (2 M) and TE-buffer (10 mM Tris-HCl, 1 mM EDTA, pH 7.5) was dropwise added to 2×HBS (50 mM HEPES, 280 mM NaCl, 1.5 mM NaH2PO4, pH 7.2) and incubated for 45 min at room temperature (22±2° C.). The mixture and a final concentration of 100 μM Chloroquine were added to the cells and left to incubate for 5 hours at 37° C. under standard cell culture conditions (10% CO2) before changing medium to fresh medium containing 5 μl/mL Myo-[2-^3H(N)]-inositol (labeling medium).
The indirect HSA binding IP3 assay takes advantage of the tachykinin receptors' ability to induce production of the inositol trisphosphate (IP3) second messenger upon agonist (ligand) binding on receptor expressing cells following an initial ^3H-inositol labeling period. The assay relies on the assumption that high peptide HSA binding will result in low receptor-mediated production of the second messenger IP3. Thus, the assay is an indirect assessment HSA binding.
Assay solutions used: Wash buffer (HBSS), Assay buffer 0.2% OvAlb (HBSS+10 mM LiCl and 0,2% w/v ovalbumin) or Assay buffer 1% HSA (HBSS+10 mM LiCl and 1% w/v HSA), Lysis buffer (10 mM formic acid), and SPA YSI beads (12.5 mg/ml in H2O). The assay was performed the day after transfection. Briefly, labelling medium was aspirated, and plates were washed ×1 in wash buffer before adding 100 μl assay buffer 0.2% OvAlb or assay buffer 1% HSA, pre-incubated for 30 min followed by 120 min incubation with agonist, both at 37° C. After incubation, plates were immediately placed on ice and the incubation medium was aspirated and 40 μl of 10 mM formic acid per well was added. Plates were incubated for at least 30 min on ice. 60 μl (1 mg/well) SPA YSI beads/well was pipetted into a solid white 96 wells plate and 35 μl of the lysis solution was transferred to the plate before covering plates with seal cover and shaking for 10 min. (max speed). Centrifuge plates and leave for 8 hours at room temperature before counting the plates in a MicroBeta plate counter (Perkin Elmer).

[2] = Intraperitoneal insulin tolerance test (ipITT) in DIO mice; assay type: in vivo; details: 325 nmol/kg s.c. once, test 24 hours after treatment
Method: (§1) Insulin tolerance test: The effect on insulin tolerance was determined using intraperitoneal insulin tolerance test (ipITT) 24 hours after single subcutaneous injection of NK2R-selective analogue in DIO mice. At day of experimentation, mice were fasted two hours prior to receiving 1.5 U/kg insulin diluted in saline solution (0.2 mL/kg) by intraperitoneal injection. Change in glucose was monitored using glucometer.

[3] = Intraperitoneal glucose tolerance test (ipGTT) in DIO mice; assay type: in vivo; details: 325 nmol/kg s.c. once, test 24 hours after treatment
Method: as §1, with “Glucose” for “Insulin”, “glucose” for “insulin”, “(ipGTT)” for “(ipITT)”, “four” for “two”, “1 g/kg glucose” for “1.5 U/kg insulin”, “([…]” for “(0.2”

[4] = Loperamide-induced dysfunctional voiding test; assay type: in vivo; details: lean wild-type mice, Loperamide 5 mg/kg, compound 130, 260, 325 nmol/kg s.c.
Method: Dysfunctional voiding test: To investigate the effect on dysfunctional voiding, constipation was induced in lean wild-type, male and female, mice using Loperamide (5 mg/kg). 30 minutes after gavage, mice were subcutaneously dosed with either vehicle, 130, 260 and for males also 325 nmol/kg of EB344. 6 hours post Loperamide gavage, mice were removed from the cage and number of feces pellets were counted.

CCCC[C@H](NC(=O)[C@H](CC(C)C)N(C)C(=O)CNC(=O)[C@@H](NC(=O)[C@H](Cc1ccc(O)cc1)NC(=O)[C@H](CCCCN)NC(=O)[C@H](CC(=O)O)NC(=O)COCCOCCNC(=O)COCCOCCNC(=O)CC[C@H](NC(=O)CCCCCCCCCCCCCCCCC(=O)O)C(=O)O)C(C)C)C(N)=O [compound 305, *Asp;Lys;Tyr;Val;Gly;NmLeu;Nle;NH2] ({C18 diacid-γGlu-AEEA-AEEA}-DKYVG[NMeL][Nle]-NH2)
Energy expenditure (percent of vehicle; based on 30 h average vO2) [1]: 9% of vehicle
hNK2R, Albumin binding Efficacy (%)-ovalbumin (hNK2R): 83%
hNK2R, Albumin binding Efficacy (%)-1% human serum albumin (hNK2R): 45-51%
EC50 (hNK2R): 260 nM

COCC[C@H](NC(=O)[C@H](CC(C)C)N(C)C(=O)CNC(=O)[C@@H](NC(=O)[C@H](Cc1ccc(O)cc1)NC(=O)[C@H](CCCCN)NC(=O)[C@H](CC(=O)O)NC(=O)COCCOCCNC(=O)COCCOCCNC(=O)CC[C@H](NC(=O)CCCCCCCCCCCCCCCCC(=O)O)C(=O)O)C(C)C)C(N)=O [compound 344, *Asp;Lys;Tyr;Val;Gly;NmLeu;Metox;NH2] ({C18 diacid-γGlu-AEEA-AEEA}-DKYVG[NMeL][hSer](Me)-NH2)
Insulin tolerance (ipITT) [2]: improved both glucose and insulin tolerance
hNK2R, Albumin binding Efficacy (%)-ovalbumin (hNK2R): 95%
hNK2R, Albumin binding Efficacy (%)-1% human serum albumin (hNK2R): 60%
EC50 (hNK2R): 260 nM
Glucose tolerance (ipGTT) [3]: improved both glucose and insulin tolerance
Loperamide-induced dysfunctional voiding (number of feces pellets during six hours) [4]: improved Loperamide-induced dysfunctional voiding in a dose-dependent manner
